Data: publication PMC10848157, “Assessing NH300094, a novel dopamine and serotonin receptor modulator with cognitive enhancement property for treating schizophrenia” (Frontiers in Pharmacology, 2024)

Columns and labels:
male ICR mice [1] = experiment: Forced swimming test in mice; assay type: in vivo; conditions: single oral dose; NH300094 0.03 mg/kg; risperidone 0.01, 0.03 and 0.1 mg/kg
Experimental: Each mouse was required to swim in an open cylindrical container (height of 25 cm, diameter of 10 cm) after intragastric administration of compounds 1 h. The container contained 1.2 L of water with temperature maintained at 24°C ± 1°C. The test used a computerized analysis and tracking system (Clever Sys Inc., Leesburg, VA) to recorded the duration of immobility (last 4 min of a total time of 6 min) about the testing mice.

male ICR mice [2] = experiment: APO-induced climbing in mice

O=C1CCc2cc(OCCCN3CCC(c4noc5cc(F)ccc45)CC3)cc3c2N1CC3 [NH300094, 8-(3-(4-(6-fluorobenzo [d]isoxazol-3-yl)piperidin-1-yl)propoxy)-1,2,5,6-tetrahydro-4H-pyrrolo [3,2,1-ij] quinolin-4-one]
effect on immobility time in the FST (male ICR mice [1]): decreased immobility time | ED50 (male ICR mice [2]; Mus musculus, read-out: ED50, inhibition of APO-induced climbing): ~0.29 mg/kg | MED, APO-induced climbing (male ICR mice [2]; single oral dose, male ICR mice): 0.3 mg/kg
